Experiment [1] deals with rats exposed to hyperoxia (>98% O2). The format is in vivo, rat. An excerpt: (§1) Animals were exposed to >98% O2 or 98% O2+CO mixtures at a flow rate of 12 liters/min in a 3.70-cubic-foot glass exposure chamber. Animals were supplied food and water during the exposures. CO at a concentration of 1% (10,000 ppm) in compressed air was mixed with >98% O2 in a stainless steel mixing cylinder prior to entering the exposure chamber. By varying the flow rates of CO into the mixing cylinder, concentrations delivered to the exposure chamber were controlled. Because the flow rate was primarily determined by the O2 flow, only the CO flow was changed to generate the different concentrations delivered to the exposure chamber. A carbon monoxide analyzer (Interscan Corporation, Chatsworth, Calif.) was used to measure CO levels continuously in the chamber. Gas samples were taken by the analyzer through a port in the top of the exposure chamber at a rate of 1 liter/min and analyzed by electrochemical detection with a sensitivity of 10 ppm to 600 ppm. CO levels in the chamber were recorded at hourly intervals and there were no changes in chamber CO concentrations once the chamber had equilibrated. O2 concentrations in the chamber were determined using a gas spectrometer.
Lungs were fixed by perfusion with 10% formalin at 20 cm H2O pressure and embedded in paraffin. Lung sections of […] were mounted onto slides pretreated with 3-aminopropylethoxysilane (Digene Diagnostics, Inc., Beltsville, Md.). Slides were baked for 30 min at 60° C. and washed twice in fresh xylene for 5 min to remove the paraffin. The slides were then rehydrated though a series of graded alcohols and then washed in distilled water for 3 min prior to staining with hematoxylin and eosin.
Animals were anesthesized with sodium pentobarbital 24 h after LPS administration or 56 h of hyperoxia exposure. BAL (35 ml/kg) was performed 4 times with PBS (pH 7.4). Cells were pooled from the lavages and centrifuged at 1200 g for 10 min. The supernatant was discarded and cells were resuspended in PBS. Cell counts were performed using a Neubaur hemocytometer. For differential analysis, samples were cytocentrifuged and stained with Diff-Quik. Measurement of Injury Markers Rats were removed at 56 h of hyperoxia and anesthetized with sodium pentobarbital. The pleural effusion was collected by inserting an 18 gauge needle and 10 cc syringe through the diaphragm and withdrawing all fluid present in the pleural cavity. BAL was performed as described above, and the first lavage was centrifuged at 1200 g for 10 min and the supernatant was assayed for the protein albumin as determined by Bromcresol Green Kit (BCG) from Sigma (St. Louis, Mo.). Arterial Blood Oxygen Tension and Carboxyhemoglobin Determination Indwelling catheters were surgically implanted into the carotid arteries of rats anesthetized with 3% v/v isoflurane. Animals were secured in jackets and tethers to allow movement about the cage and access to food and water which were placed inside the exposure chambers. Polyethelene tubing, connected to the catheter and threaded out through an airtight fitting in the lid of the chamber, was used for continuous heparin infusion throughout the exposure (20 U/ml at 0.1 ml/h) to maintain patency of the vessel. At each time point, 1 cc of blood was drawn into a heparinized syringe, sealed and placed on ice until analyzed for oxygen tension. Arterial oxygen tension and carboxyhemoglobin were determined using a BG3 Instrumentation Laboratory Blood Gas Analyzer and Co-oximeter (Boston, Mass.). […]

Experiment [2] has the same test system. Put plainly: Survival of rats in lethal hyperoxia in the presence of CO. The format is in vivo, rat. The following applies: for % Survival 72 h / % Survival 100 h: hyperoxia (>98%).
Description: Pathogen-free male Sprague-Dawley rats (250-300 g) were purchased from Harlan Sprague-Dawley (Indianapolis, Ind.) and allowed to acclimate upon arrival for 7 days prior to experimentation. Animals were fed rodent chow and water ad libitum. All experimental protocols were approved by the Animal Care and Use Committee.
as §1
We used clinically relevant in vivo models of oxidative stress to test the hypothesis that CO mediates the protective effects of HO-1 against oxidative stress. Hyperoxia when administered to animals produces pathophysiologic changes similar to those seen in human adult respiratory distress syndrome (ARDS) (Lee, et al., Am. J. Resp Cell Mol Biol. 14: 556-568; and Clerch, and Massaro, J. Clin. Invest. 91: 499-1508). […] These rats will uniformly die by 72 h of continuous hyperoxic exposure (Lee, et al. and Clerch, supra). In this study, one group of rats were placed in hyperoxia (>98% oxygen O2) alone while the second group of rats were placed in an identical chamber and exposed to the same levels of hyperoxia in the presence of a low concentration of CO (250 ppm). […] We observed concentration dependent protection against hyperoxia at both 72 and 100 h of hyperoxia exposure (Table 1). (P-value for the association between survival and CO concentration is 0.001 by logistic regression). Carboxyhemoglobin levels, a standard measurement of CO levels in the blood, correlated with increasing concentrations of CO exposure and survival of animals to lethal hyperoxia (Table 1, below).

[3] abbreviates: hyperoxia in the presence of CO.

Here are results for one compound from patent US7678390B2, “Carbon monoxide as a biomarker and therapeutic agent” (priority 1999, dated 2010).

`[C-]#[O+]` [CO, carbon monoxide]: the “neutrophil influx into the airways (BAL)” value in experiment [1] (56 h hyperoxia in the presence of CO (250 ppm)) is “significant reductions”. In addition, the lung apoptotic index in experiment [1] (56 h hyperoxia in the presence of CO (250 ppm), TUNEL/DAPI) is 1.8%±0.12. In experiment [1] (56 h hyperoxia in the presence of a low concentration of CO), the “volume of pleural effusion” value is recorded as “marked inhibition”. In experiment [1] (setting [3]), the lung histology entry is “completely normal macroscopically and microscopically”. In addition, in experiment [1] (setting [3]), the “protein accumulation into the airways (bronchoalveolar lavage)” value is recorded as “significantly lower levels”. The survival in hyperoxia result in experiment [2] (hyperoxia (>98% O2), CO 250 ppm, 72 h) was “all animals were alive at the 72 h time point”. In addition, the “% Survival 72 h” value came out at 33% in experiment [2] (CO 50 ppm, 72 h); 50% in experiment [2] (CO 100 ppm, 72 h); 100% in experiment [2] (CO 250 ppm, 72 h); 100% in experiment [2] (CO 500 ppm, 72 h). Besides, the “% Survival 100 h” value in experiment [2] (CO 50 ppm) stood at 0%; in experiment [2] (CO 100 ppm), 50%; in experiment [2] (CO 250 ppm) it was 80%; in experiment [2] (CO 500 ppm) it was 80%.
